Laboratory results as given in patent US20200171001A1, “COMBINATION THERAPY WITH 2,3-DIHYDRO-ISOINDOLE-1-ONE COMPOUNDS AND METHODS FOR TREATING PATIENTS WITH VARIOUS MUTATIONS” (Aptose Biosciences Inc., priority 2018, published 2020).

Legend:
[1] = tested on: malignant bone marrow or peripheral blood cells from AML patients; test: Ex vivo drug sensitivity (MTS cell viability, IC50 and AUC) on freshly isolated primary AML patient samples, association with somatic mutations; assay type: cell-based, human; conditions: for Effectiveness (AUC of drug sensitivity) against ASXL1 mutant cells compared with wild type: ASXL1 mutant vs wild type AML cells, FIG. 5; for Effectiveness (AUC of drug sensitivity) against SRSF2 mutant cells compared with wild type: SRSF2 mutant vs wild type AML cells; for Sensitivity of patient samples with FLT3-ITD mutations as compared to wild-type: AML patient samples with FLT3-ITD mutations vs WT, n=118 patients; for Sensitivity of patient samples with FLT3-ITD mutations as compared to wild-type / Sensitivity of patient samples with IDH1 mutants relative to WT: FIG. 1, FIG. 2; for Sensitivity of patient samples with IDH1 mutants relative to WT: AML patient samples with IDH1 mutations vs WT
Description: For Genomics Analysis examples 2-4 below, studies were performed according to published procedures [Tyner, J. W., Tognon, C. E., Bottomly, D. et al. Functional genomic landscape of acute myeloid leukaemia. Nature 562, 526-531 (2018) doi:10.1038/s41586-018-0623-z; Kurtz, S. E., Eide, C. […] PNAS Sep. 5, 2017 114 (36) 7554-7563], which are incorporated by reference in their entirety herein.
All patient samples were analyzed for clinical characteristics and drug sensitivity. AML, CLL, ALL and MDS/MPN and other patient samples were analyzed with respect to expanded, disease-specific panels of clinical, prognostic, genetic, cytogenetic, and surface antigen characteristics obtained from patient electronic medical records. Genetic characterization of AML samples included results of a clinical deep-sequencing panel of genes commonly mutated in hematologic malignancies (GeneTrails panel from Knight Diagnostic Laboratories, OHSU; Foundation Medicine reports from UT Southwestern).
Compound 7 and/or venetoclax were prepared in a well in a seven-point concentration series. Similar plates were prepared with the 48 indicated pairwise inhibitor combinations in seven-point fixed molar concentration series identical to those used for single agents. The final concentration of DMSO was ≤0.1% in all wells, and all sets of single-agent and combination destination plates were stored at −20° C. and thawed immediately before use. Primary mononuclear cells were plated across single-agent and combination inhibitor panels within 24 h of collection. Cells were seeded into assay plates at 10,000 cells per well in RPMI 1640 media supplemented with FBS (10%), L-glutamine, penicillin/streptomycin, and β-mercaptoethanol (10^−4 M). After 3 d of culture at 37° C. in 5% CO2, MTS reagent (CellTiter96 AQueous One; Promega) was added, optical density was measured at 490 nm, and raw absorbance values were adjusted to a reference blank value and then used to determine cell viability (normalized to untreated control wells).
Normalized viability values at each dose of a seven-point dilution series for Compound 7, venetoclax or combinations of the two compounds were analyzed for each of numerous primary leukemia samples. Dose concentrations were log 10-transformed, and a probit regression curve was fit to each seven-point drug sensitivity profile by using maximum-likelihood estimation for the intercept and slope. This parametric model was chosen over a polynomial because the probit's monotonic shape reflects a dose-response curve typically seen in samples incubated with cytotoxic or inhibitory agents. Normalized viability values greater than 100%, indicating higher cell viability than the average viability across control wells on a given plate, were truncated to 100% to produce a percentage response variable amenable to probit modeling. From the fitted probit curve for each sample/drug pairing, the IC50 was defined as the lowest concentration to achieve 50% predicted viability and the AUC was computed by integration of the curve height across the tested dose range. If the predicted cell viability (i.e., probit curve height) was ≤50% at the lowest tested dose or >50% across the entire dose range, the IC50 was designated as the lowest dose or highest dose, respectively. For sensitivity profiles with 100% normalized viability at all seven dose points, the IC50 and AUC were designated as the highest tested dose and the maximum possible AUC, respectively. For sensitivity profiles with 0% viability at all seven dose points, the IC50 and AUC were designated as the lowest tested dose and a value (0.5) just below the minimum probit-derived AUC, respectively.
Genomics analysis of Compound 7 was performed by testing the association of somatic mutations and expression data with Compound 7 response on freshly harvested malignant bone marrow or peripheral blood cells from AML patients. […]

[2] = tested on: B-cell malignant cell lines (e.g. AML cell lines); test: Potency against B-cell malignant cell lines compared with conventional IDH1 therapeutic agents; assay type: cell-based

Row | SMILES | Effectiveness (AUC of drug sensitivity) against ASXL1 mutant cells compared with wild type ([1]; 72-hour culture) | Effectiveness (AUC of drug sensitivity) against SRSF2 mutant cells compared with wild type ([1]; 72-hour culture, FIG. 4) | Sensitivity of patient samples with FLT3-ITD mutations as compared to wild-type [1] | Sensitivity of patient samples with FLT3-ITD mutations as compared to wild-type ([1]; listed as compound 7) | Sensitivity of patient samples with IDH1 R132 residue mutants relative to WT ([1]; AML patient samples with IDH1 R132 residue mutants (n=6), on average, vs WT) | Sensitivity of patient samples with IDH1 mutants relative to WT [1] | Sensitivity of patient samples with IDH1 mutants relative to WT ([1]; listed as compound 7) | Effectiveness (AUC of drug sensitivity) in AML cells with IDH mutations compared to IDH wild type ([1]; IDH mutant vs IDH wild type AML cells, 72-hour culture, FIG. 4) | Effectiveness (AUC of drug sensitivity) in AML cells with TP53 mutations ([1]; TP53 mutant vs TP53 wild type AML cells, 72-hour culture, FIG. 3) | IC50 towards killing cells in AML patient bone marrow samples with IDH1 mutations ([1]; all patient samples with IDH1 mutations, FIG. 2) | Potency relative to conventional IDH1 therapeutic agents (e.g., Tibsovo) [2]
1 | CC1(COc2ccc3c(c2)ncn3-c2ccc3cccc(N4CCC(N)CC4)c3n2)COC1 [crenolanib, reference compound] | appear resistant | appear resistant |  |  |  |  |  |  |  |  | 
2 | Cc1cnc(-c2ccc(-c3ccc(NC(=O)Nc4c(F)cc(F)cc4F)cc3F)c3c2C(=O)NC3)[nH]1 [Compound 7, 1-{3-fluoro-4-[7-(5-methyl-1H-imidazol-2-yl)-1-oxo-2,3-dihydro-1H-isoindol-4-yl]-phenyl}-3-(2,4,6-trifluorophenyl)urea] | just as effective | just as effective | highly sensitive | more sensitive | significantly greater sensitivity | highly sensitive | greater sensitivity | substantially more effective | retains effectiveness | particular low | more potent
